In the test the target is Mitogen-activated protein kinase 14 (Homo sapiens, UniProt Q16539). Description: Inhibition of P38alpha (unknown origin).

Bounds are passed on as bounds.

The IC50 is the concentration that gives 50% inhibition. Read a high IC50 as lower potency.

Mitogen-activated protein kinase 14, sequence (Q16539 whole entry): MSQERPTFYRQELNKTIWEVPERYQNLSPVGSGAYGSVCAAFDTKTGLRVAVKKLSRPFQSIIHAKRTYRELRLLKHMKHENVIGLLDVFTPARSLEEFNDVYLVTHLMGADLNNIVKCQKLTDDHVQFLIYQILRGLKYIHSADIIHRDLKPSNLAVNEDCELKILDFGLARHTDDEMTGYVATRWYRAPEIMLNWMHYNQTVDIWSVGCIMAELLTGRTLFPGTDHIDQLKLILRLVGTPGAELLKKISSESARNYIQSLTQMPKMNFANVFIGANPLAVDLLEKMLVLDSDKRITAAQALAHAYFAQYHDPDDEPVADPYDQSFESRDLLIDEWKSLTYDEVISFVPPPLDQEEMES

For `O=C(Nc1cnn(-c2csc(C(=O)NC3CNC3)c2)c1)Nc1ccccc1Cl`, the IC50 is above 20 µM.

Source of the values: BindingDB's records for doi:10.1021/acsmedchemlett.0c00533 (Reaction Biology, 2021).
